Measurements taken from patent publication US8338404B2, “Composition and method for reducing allergen” (Kyowa Hakko Bio Co., Ltd., priority 2007, dated 2012).

Target: T1, mite allergen Derf2 (Dermatophagoides farinae, UniProt Q00855)
T1 construct: mite allergen Derf2 contained in standard house dust; from tissue; host or cells: standard house dust (natural mite allergen, not recombinant)
T1 sequence (Q00855 18-146): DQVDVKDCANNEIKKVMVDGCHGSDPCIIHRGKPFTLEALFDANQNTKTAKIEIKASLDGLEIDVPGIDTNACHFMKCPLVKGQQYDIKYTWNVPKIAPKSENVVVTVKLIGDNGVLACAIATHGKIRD
Assay: Effects of processed fiber for reducing mite allergen (sandwich ELISA)
Format: biochemical
Details: 5% treatment solution, 1 hour; for Mite allergen concentration: 1 ml mite allergen buffer
Experimental: At the outset, anti-Derf2 monoclonal antibody 15E11, which was diluted to 2 μg/ml in phosphate buffer (pH 7.4, containing 0.1% by weight of NaN3) was applied to the F16 Maxisorp Nunc-Immuno Module plate (NUNC) in amounts of 100 μl per well and subjected to sensitization at 4° C. for at least 1 day. After sensitization, the liquid was removed, a blocking reagent (1% by weight of bovine serum albumin and phosphate buffer (pH 7.2, containing 0.1% by weight of NaN3)) was added in amounts of 100 μl per well, and the reaction was allowed to proceed at 37° C. for 60 minutes. After the reaction, the plate was washed in phosphate buffer (pH 7.2, containing 0.1% by weight of polyoxyethylene (20) sorbitan monolaurate). Subsequently, the sample resulting from the reaction of mite allergens with the aforementioned solution was added dropwise thereto in amounts of 100 μl per well, and the reaction was allowed to proceed at 37° C. for 60 minutes.
After the reaction, the plate was washed in phosphate buffer (pH 7.2, containing 0.1% by weight of polyoxyethylene (20) sorbitan monolaurate). The peroxidase-labeled anti-Derf2 monoclonal antibody was dissolved to 200 μg/ml in distilled water, the resultant was diluted 1,000-fold with phosphate buffer (pH 7.2, containing 1% by weight of bovine serum albumin and 0.1% by weight of polyoxyethylene (20) sorbitan monolaurate), and the resulting solution was added in amounts of 100 μl per well. The reaction was allowed to proceed at 37° C. for 60 minutes, and the plate was first washed with phosphate buffer (pH 7.2, containing 0.1% by weight of polyoxyethylene (20) sorbitan monolaurate) and then with distilled water. Ortho-phenylenediamine dihydrochloride (26 mg tablet, Sigma Chemical Co.) and a hydrogen peroxide solution (13 μl) were added to 13 ml of 0.1 mol/l phosphate buffer (pH 6.2), the resultant was added in amounts of 100 μl per well, and the reaction was allowed to proceed at 37° C. for 5 minutes. Immediately thereafter, 50 μl each of 2 mol/l H2SO4 was introduced so as to terminate the reaction, and the absorbance (OD 490 nm) was assayed using a microplate spectrophotometer (Bio-Rad Laboratories Inc.)
The allergen-reducing fabric obtained in Example 8 was tested in terms of the effects of allergen reduction. As a control, a white cotton broadcloth and polyethylene terephthalate (PET) cloth were soaked via a padding method in an aqueous solution of 5% tannic acid (an equivalent of JP Patent Publication (kokai) No. 61-44821 A (1986)), the clothes were dried at 110° C. for 2 minutes, and the resultants were tested in terms of the effects of allergen reduction.
The clothes (5 cm×5 cm each) were introduced into reclosable plastic bags, 1 ml of phosphate buffer (pH 7.2) of mite allergen was added thereto, and the resultants were allowed to stand for 1 hour. The centrifuged samples were subjected to enzyme immunoassay (i.e., sandwich ELISA) in the same manner as in Test Example 1 to inspect the effects of reducing mite allergen Derf2.

[1] = PET cloth 5 cm×5 cm, not treated: 970 ng/ml
[2] = cotton broadcloth 5 cm×5 cm, not treated: 720 ng/ml

Row | SMILES | Mite allergen concentration [1] [ng/mL] | Reduction (PET cloth 5 cm×5 cm) [%] | Mite allergen concentration [2] [ng/mL] | Reduction (cotton broadcloth 5 cm×5 cm) [%]
1 | O=C(OC[C@H]1O[C@@H](OC(=O)c2cc(O)c(O)c(OC(=O)c3cc(O)c(O)c(O)c3)c2)[C@H](OC(=O)c2cc(O)c(O)c(OC(=O)c3cc(O)c(O)c(O)c3)c2)[C@@H](OC(=O)c2cc(O)c(O)c(OC(=O)c3cc(O)c(O)c(O)c3)c2)[C@@H]1OC(=O)c1cc(O)c(O)c(OC(=O)c2cc(O)c(O)c(O)c2)c1)c1cc(O)c(O)c(OC(=O)c2cc(O)c(O)c(O)c2)c1 [tannic acid] | 190 | 80 | 120 | 83
2 | CC(=O)N1C[C@H](O)C[C@H]1C(=O)O [N-acetyl-trans-4-hydroxy-L-proline] | 2.3 | 99.8 | 3.5 | 99.5
